Active and inactive are the calls of the source. The calls are words filed in the database; no cut-off is given here.
Key:
[1] = test system: HUVEC; assay: Inhibition of cell motility of HUVEC; format: functional, cell-based; conditions: Homo sapiens
[2] = test system: MCF-10A; assay: Toxicity in human MCF10A cells expressing Eya2 (unknown origin) assessed as effect on cell proliferation of; format: cell-based
[3] = test system: T1, Protein phosphatase EYA2 (Homo sapiens), O00167 [D250N]; assay: Inhibition of Eya2 D250N mutant (unknown origin) expressed in human MCF10A cells assessed as reduction in cell migration; format: cell-based; conditions: concentration not given here
T1 sequence (whole entry): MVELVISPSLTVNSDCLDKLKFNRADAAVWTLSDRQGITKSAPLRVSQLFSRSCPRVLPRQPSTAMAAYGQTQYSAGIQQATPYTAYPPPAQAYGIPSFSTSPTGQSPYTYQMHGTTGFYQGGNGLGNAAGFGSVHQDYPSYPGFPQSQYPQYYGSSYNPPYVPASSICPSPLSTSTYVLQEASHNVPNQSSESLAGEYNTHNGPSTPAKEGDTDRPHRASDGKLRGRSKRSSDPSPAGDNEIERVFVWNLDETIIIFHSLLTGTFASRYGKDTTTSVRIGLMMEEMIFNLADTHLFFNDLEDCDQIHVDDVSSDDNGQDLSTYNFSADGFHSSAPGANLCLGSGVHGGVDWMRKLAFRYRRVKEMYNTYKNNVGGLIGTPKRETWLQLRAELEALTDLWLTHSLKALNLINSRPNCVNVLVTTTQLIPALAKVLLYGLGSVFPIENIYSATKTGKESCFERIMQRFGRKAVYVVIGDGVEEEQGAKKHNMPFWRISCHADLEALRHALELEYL

[4] = organism: Danio rerio; assay: Inhibition of angiogenesis in FLK1-GFP trangenic zebrafish model of angiogenesis assessed as effect on vasculature exposed to compound starting at later stage (20 hpf) by fluorescence microscopy; format: functional, organism-based
[5] = organism: Danio rerio; assay: Inhibition of angiogenesis in FLK1-GFP trangenic zebrafish model of angiogenesis assessed as reduction in intersegmental vessel number and extension measured after 24 hpf stage by fluorescence microscopy; format: functional, organism-based
[6] = organism: Mus musculus; assay: Inhibition of proliferative retinopathy in mouse model of oxygen-induced retinopathy assessed as reduction in formation of neovascular tufts at 50 to 100 pmole injected at P12 and measured at P16; format: functional, organism-based
[7] = test system: Aorta; assay: Inhibition of endothelial cell migration in VEGF165-stimulated […] mouse aortic rings incubated in collagen matrix assessed as induction of shorter sprouts incubated for 10 days by aortic ring assay; format: functional, tissue-based
[8] = test system: Aorta; assay: Inhibition of endothelial cell migration in VEGF165-stimulated […] mouse aortic rings incubated in collagen matrix assessed as reduction in microvascular density incubated for 10 days by aortic ring assay; format: functional, tissue-based
[9] = target: T2, Protein phosphatase EYA2 (Homo sapiens) (UniProt O00167); assay: Inhibition of Eya2 (unknown origin) expressed in human MCF10A cells assessed as reduction in cell migration; format: cell-based
T2 sequence (whole entry): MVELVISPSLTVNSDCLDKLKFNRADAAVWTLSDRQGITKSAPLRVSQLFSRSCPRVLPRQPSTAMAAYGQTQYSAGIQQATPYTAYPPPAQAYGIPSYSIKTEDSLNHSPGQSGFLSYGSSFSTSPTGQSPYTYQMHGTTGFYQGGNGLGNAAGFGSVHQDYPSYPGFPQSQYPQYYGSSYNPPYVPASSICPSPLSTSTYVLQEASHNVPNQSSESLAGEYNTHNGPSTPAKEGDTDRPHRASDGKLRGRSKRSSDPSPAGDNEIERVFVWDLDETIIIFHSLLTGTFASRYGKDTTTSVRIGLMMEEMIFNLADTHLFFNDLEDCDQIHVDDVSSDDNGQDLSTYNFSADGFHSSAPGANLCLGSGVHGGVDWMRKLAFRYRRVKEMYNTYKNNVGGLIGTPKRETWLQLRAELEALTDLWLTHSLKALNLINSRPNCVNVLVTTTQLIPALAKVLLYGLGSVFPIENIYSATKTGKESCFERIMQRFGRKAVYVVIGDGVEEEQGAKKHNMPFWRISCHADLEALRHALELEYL

[10] = organism: Danio rerio; assay: Inhibition of angiogenesis in FLK1-GFP trangenic zebrafish model of angiogenesis assessed as induction of defects in developing vasculature measured after 24 hpf stage by fluorescence microscopy; format: functional, organism-based
[11] = organism: Mus musculus; assay: Inhibition of proliferative retinopathy in mouse model of oxygen-induced retinopathy assessed as reduction in revascularization into the vaso-obliterated area at 50 to 100 pmole injected at P12 and measured at P16; format: functional, organism-based
[12] = test system: HUVEC; assay: Toxicity in HUVEC assessed as effect on cell proliferation by MTT assay; format: cell-based; conditions: human
[13] = test system: HUVEC; assay: Inhibition of tubulogenesis of HUVEC grown on growth factor-reduced matrigel at 7.5 uM by inverted microscopy; format: functional, cell-based; conditions: Homo sapiens
[14] = test system: HUVEC; assay: Inhibition of tube formation of HUVEC assessed as induction of reduction in endothelial cells organization after 6 hrs by matrigel tube-formation assay; format: functional, cell-based; conditions: Homo sapiens
[15] = test system: HUVEC; assay: Inhibition of tube formation of HUVEC in presence of hight level of fetal bovine serum by matrigel tube-formation assay; format: functional, cell-based; conditions: Homo sapiens
[16] = test system: HUVEC; assay: Toxicity in HUVEC assessed as reduction in cell proliferation incubated for 3 days by WST8 assay; format: cell-based; parameters: scale not given: the % may be the effect or the level left; conditions: human, 72 h
[17] = test system: HUVEC; assay: Inhibition of tube formation of HUVEC assessed as induction of reduction in endothelial cells organization after 2 hrs by matrigel tube-formation assay; format: functional, cell-based; conditions: Homo sapiens
[18] = test system: HUVEC; assay: Inhibition of tube formation of HUVEC assessed as induction of endothelial cells aggregation by matrigel tube-formation assay; format: functional, cell-based; conditions: Homo sapiens
[19] = test system: HUVEC; assay: Inhibition of tube formation of HUVEC by matrigel tube-formation assay; format: functional, cell-based; conditions: Homo sapiens
[20] = test system: HUVEC; assay: Inhibition of tube formation of HUVEC assessed as reduction of interconnecting cellular aggregates of endothelial cells after 20 hrs by matrigel tube-formation assay; format: functional, cell-based; conditions: Homo sapiens
[21] = test system: Aorta; assay: Inhibition of branching in mouse aorta cultured in collagen gels assessed as reduction in number of branch-points at 7.5 uM by aortic ring sprouting assay; format: functional, tissue-based
[22] = test system: Aorta; assay: Inhibition of sprouting in mouse aorta cultured in collagen gels at 7.5 uM by aortic ring sprouting assay; format: functional, tissue-based
[23] = target: T3, Protein phosphatase EYA3 (Homo sapiens) (UniProt Q99504); conditions: 50 uM
T3 sequence (whole entry): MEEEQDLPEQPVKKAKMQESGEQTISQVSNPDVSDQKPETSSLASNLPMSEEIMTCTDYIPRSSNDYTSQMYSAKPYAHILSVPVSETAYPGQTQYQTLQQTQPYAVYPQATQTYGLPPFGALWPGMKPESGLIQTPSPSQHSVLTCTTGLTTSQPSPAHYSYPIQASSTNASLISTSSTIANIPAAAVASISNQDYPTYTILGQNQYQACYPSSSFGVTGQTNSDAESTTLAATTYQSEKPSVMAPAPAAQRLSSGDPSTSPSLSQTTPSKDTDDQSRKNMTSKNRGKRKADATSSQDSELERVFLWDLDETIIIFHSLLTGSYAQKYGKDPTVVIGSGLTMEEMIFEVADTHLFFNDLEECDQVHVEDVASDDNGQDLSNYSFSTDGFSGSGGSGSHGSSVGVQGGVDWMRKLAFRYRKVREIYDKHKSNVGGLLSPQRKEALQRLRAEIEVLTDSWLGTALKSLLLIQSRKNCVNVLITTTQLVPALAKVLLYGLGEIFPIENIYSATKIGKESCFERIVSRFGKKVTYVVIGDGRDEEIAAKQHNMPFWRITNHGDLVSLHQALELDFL
Description: Inhibition of human Eya3 isoform 2 (127 to 573 residues) interaction with His-tagged SIX2 at 50 uM by Ni-NTA agarose gel based pull down assay

[24] = test system: A673; assay: Antitumor activity against human A673 cells xenografted in nude mouse assessed as inhibition tumor growth at 25 mg/kg/day, ip and measured every other day for 2 weeks; format: functional, organism-based
[25] = test system: HUVEC; assay: Inhibition of tubulogenesis of HUVEC grown on growth factor-reduced matrigel at 2.5 uM by inverted microscopy; format: functional; conditions: Homo sapiens
[26] = organism: Mus musculus; assay: Inhibition of post-natal retinal angiogenesis in postnatal mouse assessed as reduction in branch points at 100 uM injected into eyes at P0.5, P3 and P5; format: functional, organism-based
[27] = target: T2, Protein phosphatase EYA2 (Homo sapiens); assay: Inhibition of Eya2 (unknown origin) expressed in human MCF10A cells assessed as reduction in cell migration at 1 uM; format: cell-based
[28] = Selectivity index, ratio of IC50 for inhibition of PTP1B (unknown origin) by p-nitrophenylphosphate assay to IC50 for inhibition of mouse Eya3 catalytic domain (223 to 510 residues) by p-nitrophenylphosphate assay
[29] = test system: HUVEC; assay: Inhibition of tubulogenesis of HUVEC grown on growth factor-reduced matrigel by inverted microscopy; format: functional, cell-based; conditions: Homo sapiens

Row | SMILES | inhibition [1] | Activity [2] | inhibition [3] [%] | inhibition [4] | inhibition [5] | inhibition [6] | inhibition [7] | inhibition [8] | inhibition [9] | inhibition [10] | inhibition [11] | Activity [12] | Activity [16] | inhibition [19] | inhibition [21] | inhibition [22] | other results
1 | CCCCc1oc2ccccc2c1C(=O)c1ccc(O)cc1 | Active | Non-Toxic | < 10 | inactive | Dose-dependent effect | Active | Dose-dependent effect | Dose-dependent effect | Dose-dependent effect | Dose-dependent effect | Active | Non-Toxic |  |  |  |  | inhibition [13]: Active
2 | CCc1oc2cc(O)ccc2c1C(=O)c1cc(Br)c(O)c(Br)c1 |  |  |  |  |  |  |  |  |  |  |  |  | > 50% | Active | Active | Active | inhibition [14]: Active; inhibition [15]: inactive; inhibition [17]: Active; inhibition [18]: Active; inhibition [20]: Active
3 | CCc1oc2ccc(O)cc2c1C(=O)c1cc(Br)c(O)c(Br)c1 |  |  |  |  |  |  |  |  |  |  |  |  |  | inactive | Active | Active | 
4 | CCCCc1oc2ccccc2c1C(=O)c1cc(I)c(O)c(I)c1 |  |  |  |  |  |  |  |  |  |  |  |  |  | inactive | Active | Active | 
5 | CC(O)CCc1oc2ccccc2c1C(=O)c1cc(I)c(O)c(I)c1 (stereo not given) |  |  |  |  |  |  |  |  |  |  |  |  |  | inactive | Active | Active | 
6 | Cc1oc2ccccc2c1C(=O)c1ccc(O)c(I)c1 |  |  |  |  |  |  |  |  |  |  |  |  |  | inactive | Active | Active | 
7 | CCc1oc2ccccc2c1C(=O)c1cc(Br)c(O)c(Br)c1 [BENZBROMARONE] | Active | Non-Toxic | < 10 | inactive | Dose-dependent effect | Active | Dose-dependent effect | Dose-dependent effect | Dose-dependent effect | Dose-dependent effect | Active | Non-Toxic | Toxic | Active |  |  | inhibition [23]: inactive; TGI [24]: Active; inhibition [13]: Active
8 | CCc1oc2ccccc2c1C(=O)c1ccc(O)cc1 [BENZARONE] | Active | Non-Toxic | < 10 | inactive | Dose-dependent effect | Active | Dose-dependent effect | Dose-dependent effect | Dose-dependent effect | Dose-dependent effect | Active | Non-Toxic | Toxic | Active |  |  | inhibition at 2.5 µM [25]: 50%; inhibition [26]: Active; inhibition [27]: > 50%; Ratio IC50 [28]: > 100; inhibition [29]: Dose-dependent effect
9 | CC(O)c1oc2ccccc2c1C(=O)c1cc(Br)c(O)c(Br)c1 (stereo not given) |  |  |  |  |  |  |  |  |  |  |  |  |  |  | Active | Active | 
10 | Cc1oc2ccccc2c1C(=O)c1cc(I)c(O)c(I)c1 |  |  |  |  |  |  |  |  |  |  |  |  |  | inactive | Active | Active | 

Source: ChEMBL document CHEMBL4257222, “Use of small molecule inhibitors targeting eya tyrosine phosphatase” (2016)
